Like-named read-outs stand apart in the source and are kept apart here.

From patent US6472401B2, “Methods for the treatment of vascular disorders” (Schering Corporation, priority 1999, dated 2002) come the findings set out here.

Assay [1] in a line: Administration of antihistamine to patients suffering from clinical depression (Example 2). The settings on record: for recurrence of symptoms of depression: patients known to have suffered from depression, not currently experiencing symptoms, administered indefinitely; for reduction of symptoms of depression: patients suffering from depression; for recurrence or worsening of symptoms of depression: responders continue treatment at their respective dosage level.
Description: Patients suffering from clinical depression are administered a non-sedating antihistamine (loratadine) or a low-sedating antihistamine (cetirizine) to relieve the symptoms of depression. Six treatment groups are contemplated.

The conditions of assay [2]: for recurrence of symptoms of depression: administered indefinitely.
Setting [3] is: patients known to have suffered from depression and subject to allergic rhinitis, no current symptoms of either.
[4] abbreviates: patients known to have suffered from depression and suffering from allergic rhinitis, no current depression symptoms.
Where [5] appears, read: patients suffering from depression and allergic rhinitis.
The mark [6] stands for this setting: patients suffering from depression, subject to allergic rhinitis but not currently suffering from it.
The mark [7] stands for this setting: responders subject to allergic rhinitis but without current rhinitis symptoms continue treatment at their respective dosage level.
[8] abbreviates: responders suffering from allergic rhinitis continue treatment at their respective dosage level.

In the case of `CCOC(=O)N1CCC(=C2c3ccc(Cl)cc3CCc3cccnc32)CC1` [loratadine], the “recurrence of symptoms of depression” value in assay [1], in assay [2] (setting [3]) and in assay [2] (setting [4]) was “a significant number of patients do not experience recurrence of symptoms of depression” throughout. Besides, the “reduction of symptoms of depression” value in assay [1], in assay [2] (setting [5]) and in assay [2] (setting [6]) was “A significant number of patients experience a reduction of their symptoms of depression” each time. The “recurrence or worsening of symptoms of depression” value in assay [1], in assay [2] (setting [7]) and in assay [2] (setting [8]) was “a significant number of patients do not experience recurrence or worsening of symptoms of depression” each time.

`O=C(O)COCCN1CCN(C(c2ccccc2)c2ccc(Cl)cc2)CC1` (stereo not drawn) [cetirizine]: the “recurrence of symptoms of depression” value in assay [1], in assay [2] (setting [3]) and in assay [2] (setting [4]) was “a significant number of patients do not experience recurrence of symptoms of depression” in each case. Moreover, the “reduction of symptoms of depression” value in assay [1], in assay [2] (setting [5]) and in assay [2] (setting [6]) was “A significant number of patients experience a reduction of their symptoms of depression” throughout. Also, the “recurrence or worsening of symptoms of depression” value in assay [1], in assay [2] (setting [7]) and in assay [2] (setting [8]) was “a significant number of patients do not experience recurrence or worsening of symptoms of depression” throughout.
